Test results from patent publication US7611873B1, “Method for producing L-methionine by fermentation” (priority 1998, dated 2009).
Read-outs that look alike come from different tables or passages of the source.

Key:
Assay type in all cases: biochemical
[1] = target: T1, HTS derived from MM resistant strain WMM4 (296th isoleucine changed to serine) (Escherichia coli, UniProt P07623, I296S); conditions: for HTS activity in the presence of inhibitor: WMM4, no addition 4.5; for Inhibition of HTS activity (in words): WMM4 strain, compared with wild strain
T1 construct: The HTS activity in the crude enzyme extract was measured; endogenous in cells; host or cells: E. coli WMM4 (spontaneous MM-resistant mutant of W3110), crude enzyme extract
T1 sequence (P07623 whole entry I296S): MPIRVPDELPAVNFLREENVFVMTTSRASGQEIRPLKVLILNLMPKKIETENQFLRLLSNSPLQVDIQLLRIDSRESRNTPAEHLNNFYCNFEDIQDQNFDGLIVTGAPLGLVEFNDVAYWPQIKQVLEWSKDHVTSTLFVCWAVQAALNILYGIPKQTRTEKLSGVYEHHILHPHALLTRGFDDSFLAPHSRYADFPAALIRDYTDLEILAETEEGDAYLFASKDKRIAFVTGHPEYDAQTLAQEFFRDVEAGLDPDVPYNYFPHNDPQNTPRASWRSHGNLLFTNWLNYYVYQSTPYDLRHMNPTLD
Method: (§1) In order to confirm the effect of the metJ deletion by the recombination, a crude enzyme extract was prepared from the cells, and the activities of HTS and cystathionine synthase were measured. The W3110 strain and the WΔJ strain were each inoculated to 2 ml of LB medium, and cultured at 37° C. overnight. 1 ml of the medium was centrifuged at 5,000 rpm for 10 minutes, and the cells were washed twice with 0.9% saline. The obtained cell were suspended in 1 ml of 0.9% saline, 0.5 ml of which was inoculated to 50 ml of Davis-Mingioli minimal medium (Davis B. D., and Mingioli, E. S., J. Bacteriol., 60, 17-28 (1950)) containing 5 mM L-methionine. The cells were cultured at 37° C. for 24 hours, then the medium was centrifuged at 8,000 rpm for 10 minutes, and the cells were washed twice with 0.9% saline. The cells were suspended in 3 ml of 50 mM potassium phosphate buffer (pH 7.5) containing 1 mM dithiothreitol. This suspension was subjected to a cell disruption treatment at 4° C. with a power of 150 W for 5 minutes by using an ultrasonicator (Kubota Co.). The sonicated suspension was centrifuged at 15,000 rpm for 30 minutes, and the supernatant was desalted in a Sephadex G-50 column (Pharmacia) to obtain a crude enzyme extract. The HTS activity and the cystathionine synthase activity in the crude enzyme extract were measured.
(§2) As for the HTS activity, 5 μl of the crude enzyme extract was added to a reaction mixture comprising 0.1 M potassium phosphate (pH 7.5), 1 mM succinyl-coenzyme A (Sigma), 0.2 nM DL-[^14C]homoserine (Muromachi Chemical Industry), and 0.2 mM L-homoserine to obtain a volume of 50 μl, and allowed to react at 30° C. for 10 minutes. 1 μl of the reaction mixture was spotted on a cellulose plate (Merck), and developed with a mixed solvent containing acetone, butanol, water, and diethylamine at a ratio of 10:10:5:2. After the plate was air-dried, autoradiography was performed by using an image analyzer (Fuji Photo Film).
(§3) Chromosomal DNA was prepared from these resistant strains. PCR was performed by using each chromosomal DNA as a template and primers having the sequences represented as SEQ ID NOS: 21 and 22 to amplify the metA gene. The nucleotide sequence of each amplification fragment was determined by using primers for amplification of which nucleotide sequences are represented as SEQ ID NOS: 21 and 22, and primers having the sequences represented as SEQ ID NOS: 23 and 24.
(§4) The cells were washed twice with 1 ml of 0.9% saline, and suspended in 1 ml of 0.9% saline, 0.5 ml of which was inoculated to 50 ml of minimal medium and cultured at 37° C. for one day. The medium was centrifuged at 8,000 rpm for 10 minutes, and the cells were washed twice with 1 ml of 0.9% saline. The obtained cells were suspended in 3 ml of 50 mM potassium phosphate buffer (pH 7.5) containing 1 mM dithiothreitol, and a crude enzyme extract was obtained in the same manner as in Example 1. The HTS activity in the crude enzyme extract was measured with the reaction composition mentioned in Example 1 in the presence of an inhibitor.

[2] = target: T2, HTS derived from MM resistant strain WMM7 (IS2 insertion, proline 298 and subsequent residues changed) (Escherichia coli, UniProt P07623); conditions: no addition 0.0 (activity undetectable)
T2 construct: The HTS activity in the crude enzyme extract was measured; endogenous in cells; host or cells: E. coli WMM7 (MM-resistant mutant of W3110 with IS2 in metA), crude enzyme extract
T2 sequence (P07623 other isoform, or with tags, fused parts or gaps, stated change not applied): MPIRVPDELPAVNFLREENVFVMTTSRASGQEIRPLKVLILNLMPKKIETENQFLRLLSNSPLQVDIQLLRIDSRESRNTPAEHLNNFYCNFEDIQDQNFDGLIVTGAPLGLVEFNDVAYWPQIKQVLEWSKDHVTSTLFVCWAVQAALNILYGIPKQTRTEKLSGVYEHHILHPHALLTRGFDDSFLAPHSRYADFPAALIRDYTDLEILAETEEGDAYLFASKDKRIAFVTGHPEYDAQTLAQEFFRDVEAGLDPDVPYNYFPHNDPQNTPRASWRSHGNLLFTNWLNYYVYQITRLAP
Method: as §1, §2, §3, §4

[3] = target: T3, HTS derived from MM resistant strain WMM9 (arginine 27 changed to cysteine) (Escherichia coli, UniProt P07623, R27C); conditions: for HTS activity in the presence of inhibitor: WMM9, no addition 5.0; for Inhibition of HTS activity (in words): WMM9 strain, compared with wild strain
T3 construct: The HTS activity in the crude enzyme extract was measured; endogenous in cells; host or cells: E. coli WMM9 (spontaneous MM-resistant mutant of W3110), crude enzyme extract
T3 sequence (P07623 whole entry R27C): as the sequence (P07623 whole entry I296S) above, with R27C, S296I counted along it
Method: as §1, §2, §3, §4

[4] = target: T4, HTS derived from MM resistant strain WMM5 (proline 298 changed to leucine) (Escherichia coli, UniProt P07623, P298L); conditions: for HTS activity in the presence of inhibitor: WMM5, no addition 4.5; for Inhibition of HTS activity (in words): WMM5 strain, compared with wild strain
T4 construct: The HTS activity in the crude enzyme extract was measured; endogenous in cells; host or cells: E. coli WMM5 (spontaneous MM-resistant mutant of W3110), crude enzyme extract
T4 sequence (P07623 whole entry P298L): as the sequence (P07623 whole entry I296S) above, with S296I, P298L counted along it
Method: as §1, §2, §3, §4

[5] = target: T5, homoserine transsuccinylase (HTS) of W3110 strain (wild-type) (Escherichia coli, UniProt P07623); assay: HTS activity in crude enzyme extract in the presence of inhibitors, W3110 (wild strain); conditions: no addition 22.3
T5 construct: The HTS activity in the crude enzyme extract was measured; endogenous in cells; host or cells: E. coli W3110 (wild strain), desalted crude enzyme extract
T5 sequence (P07623 whole entry): as the sequence (P07623 whole entry I296S) above, with S296I counted along it
Method: as §1, §2, §4

| Structure (SMILES) | HTS activity in the presence of inhibitor ([1]; 0.1 mM inhibitor) | HTS activity in the presence of inhibitor ([1]; 1 mM inhibitor) | Inhibition of HTS activity (in words) [1] | HTS activity in the presence of inhibitor ([2]; 0.1 mM inhibitor) | HTS activity in the presence of inhibitor ([2]; 1 mM inhibitor) | HTS activity in the presence of inhibitor ([3]; 0.1 mM inhibitor) | HTS activity in the presence of inhibitor ([3]; 1 mM inhibitor) | Inhibition of HTS activity (in words) [3] | HTS activity in the presence of inhibitor ([4]; 0.1 mM inhibitor) | HTS activity in the presence of inhibitor ([4]; 1 mM inhibitor) | Inhibition of HTS activity (in words) [4] | HTS activity in the presence of inhibitor ([5]; 0.1 mM inhibitor) | HTS activity in the presence of inhibitor ([5]; 1 mM inhibitor) |
| --- | --- | --- | --- | --- | --- | --- | --- | --- | --- | --- | --- | --- | --- |
| C[S+](CC[C@H](N)C(=O)[O-])C[C@H]1O[C@@H](n2cnc3c(N)ncnc32)[C@H](O)[C@@H]1O (stereo partly drawn) [SAM, S-adenosylmethionine] | 4.6 mmol/min/mg protein | 2.6 mmol/min/mg protein | tendency of cancellation | 0.0 mmol/min/mg protein | 0.0 mmol/min/mg protein | 1.1 mmol/min/mg protein | 0.5 mmol/min/mg protein | hardly canceled | 3.6 mmol/min/mg protein | 3.3 mmol/min/mg protein | tendency of cancellation | 17.0 mmol/min/mg protein | 3.0 mmol/min/mg protein |
| CSCCC(C)(N)C(=O)O (racemic) [MM, α-methyl-DL-methionine] | 4.1 mmol/min/mg protein | 4.6 mmol/min/mg protein | canceled | 0.0 mmol/min/mg protein | 0.0 mmol/min/mg protein | 4.9 mmol/min/mg protein | 2.7 mmol/min/mg protein | canceled | 4.6 mmol/min/mg protein | 4.8 mmol/min/mg protein | canceled | 18.6 mmol/min/mg protein | 7.0 mmol/min/mg protein |
| CSCC[C@H](N)C(=O)O [Met, L-methionine] | 4.5 mmol/min/mg protein | 4.0 mmol/min/mg protein | reduced considerably | 0.0 mmol/min/mg protein | 0.0 mmol/min/mg protein | 2.5 mmol/min/mg protein | 2.2 mmol/min/mg protein | reduced considerably | 4.2 mmol/min/mg protein | 4.0 mmol/min/mg protein | reduced considerably | 14.3 mmol/min/mg protein | 0.8 mmol/min/mg protein |
